What all share (assay type): in vivo
In series [1] the test system is American cockroach, Periplaneta americana (L.). Kind of series: Fumigant toxicity in sealed glass jar, American cockroach. The conditions noted are these: 8-36 adult males.
Series [2] deals with 'Brim' soybean [Glycine max]. Kind of series: Soybean growth in treated soil (Experiments 1 and 2). The protocol:
Additionally, the nematicidal properties of iodinated hydrocarbons were investigated in greenhouse experiments with field soil infested with Meloidogyne arenaria and Heterodera Glycines. Chemicals were added directly to infested solid at rates <100 mg/Kg soil. Treated soil was kept moist (approximately 60 percent field capacity) and uncovered for 7-10 days when samples were collected, and the pots were planted with ‘Brim’ soybean, Glycine max. […] 1,2-diiodoethane (C2), 1,3-diiodopropane (C3), 1,4-diiodobutane (C4), 1,5-diiodopentane (C5), 1,6-diiodohexane (C6), and […] were applied to soil rates of 2.5, 5.0, 7.5, and 10 mg/Kg soil. All rates of C2 and C8 were ineffective in reducing M. arenaria juvenile (J2) populations in preplant samples. This was also true for C2 and J2 populations of H. glycines; however, […] rates ≧5.0 mg suppressed J2 populations of H. glycines. […] H. glycines J2 numbers in final soil samples were generally inversely related to rates for C3-C8. […] Applications of C3-C6 to soil increased shoot weights in a manner directly related to dosages but only in a curvilinear pattern.
In this experiment, the nematicidal properties of various diiodinated hydrocarbons were compared. The nematicidal properties of diiodinated C2-C8 normal hydrocarbons was assessed in a greenhouse experiment with field soil infested with Meloidogyne arenaria [Ma] and Heterodera glycines [Hg]. 1,2-diiodoethane [C2], 1,3-diiodopropane [C3], 1,4-diiodobutane [C4], 1.5-diiodopentane [C5], 1,6-diiodohexane [C6] and 1,8-diiodooctane [C8] were applied to soil at rates of 2.5, 5.0, 7.5, and 10.0 mgs/kg soil. The potted soil was kept moist in a greenhouse for 10 days when preplant samples were collected for analysis, and the pots were planted with ‘Brim’ soybean [Glycine max]. After 7 weeks of growth, the plants were removed and final soil samples taken. Data was collected on weights of fresh roots and shoots, root galling by Ma, and numbers of nematodes in soil and roots. All rates of C2 and C8 were ineffective in reducing Ma juvenile [J2] populations in the preplant samples. This was also true for C2 and J2 populations of Hg; however, C8 rates ≧5.0 mg suppressed J2 populations of Hg. […] Hg J2 numbers in final soil samples were generally inversely related to rates for C3-C8. This pattern of suppression in J2 numbers was also applicable to Ma in the final soil samples but only for C3-C6. […] Applications of C3-C6 to soil increased shoot weights in a manner directly related to dosages but non-linear in pattern.

The subject of series [3] is cyst [Heterodera glycines]. The experiment in a line: Greenhouse nematicide test, iodinated C1-C3 hydrocarbons (Experiment 4). The settings on record: 0.4 ml rate. The method, then: In this experiment, the nematicidal properties of low molecular weight iodinated hydrocarbons were investigated. The nematicidal properties of iodinated C1-C3 hydrocarbons were evaluated in greenhouse experiments with field soil infested with root-knot [Meloidogyne arenaria] and cyst [Heterodera glycines] nematodes. lodomethane, di-iodomethane, iodoethane, di-iodoethane, and 1-iodopropane were added to soil at rates of 0.1, 0.2 and 0.4 ml/kg soil.
The treated soil was kept moist for 10 days when soil samples were taken for nematode analysis and ‘Brim’ soybean [Glycine max] planted. Soybeans were allowed to grow for 8 weeks and then were removed from the soil to determine plant growth, root-knot indices and the number of galls generated by M arenaria. […] All compounds except 1-iodopropane increased fresh shoot weight when applied at ≧0.1 ml/kg soil.

Another series deals with Meloidogyne arenaria. The experiment in a line: Greenhouse nematicide test, iodomethane vs ethylene diiodide (Experiment 5). The method, then:
(§1) In this experiment, the nematotoxic properties of ethylene diiodide were compared to that of methyl iodide. The nematicidal efficacies of iodomethane [IM] and ethylene diiodide [EDI] were compared in a greenhouse experiment using field soil infested with Meloidogyne arenaria, Pratylenchus brachyurus, and Paratrichodorus christiei.
(§2) Each compound was added to soil at rates of 100, 200, 300 and 400 mg s/kg of soil. The soil was potted and kept moist for two weeks when it was planted with ‘Brim’ soybean after taking samples for nematological analyses. After eight weeks of growth, the plants were removed from the pots and soil samples taken. Data was collected on weights of fresh roots and shoots, general appearance of roots [root condition index] and root gall formation by M. arenaria. All EDI rates eliminated M. arenaria juveniles [J2] and populations of the other nematodes in the preplant samples; IM reduced J2 numbers by 50-70%, eliminated P. christiei with the 400 mg rate, but had no effect on P. brachyurus. […] The general appearance of roots was improved by EDI at rates ≦300 mg, but MI had no effect on the variable. […] M. arenaria J2 populations in roots were reduced by 60-70% by MI treatments, but the compound had no effect on root populations of P. brachyurus. MI had no effect on J2 populations in the final soil samples, although it suppressed P. christiei, by 50-70%.

The subject of series [4] is Paratrichodorus christiei. Described as above. The conditions noted are these: all rates (100-400 mg/kg of soil). The protocol:
as §1, §2

The subject of another series is Pratylenchus brachyurus. Described as above. The settings on record: rates 100-400 mg/kg of soil. The protocol:
as §1, §2

A further series concerns 'Brim' soybean. The experiment in a line: Soybean growth and root condition in treated soil (Experiment 5). The method, then: as §1, §2
Series [5] has as its system Meloidogyne arenaria, Pratylenchus brachyurus, and Paratrichodorus christiei. Kind of series: Nematodes in roots and soils at end of Experiment 5 (all nematodes). The conditions noted are these: after eight weeks of growth. The protocol:
as §1, §2

On to `ICCI` [1,2-diiodoethane], for which, in series [1] (1 h exposure), the “% Mortality after 1 h exposure, American cockroach” value is given as 8%. Further, the “% Mortality after 24 h exposure, American cockroach” value in series [1] (24 h exposure) is given as 100%. Further, the results for the “Shoot weights of soybean” value in series [2] (2.5 mg rate) and in series [2] (rates higher than 2.5 mg) were “increased shoot weights slightly” and “no significant effect”, respectively. Also, in series [3], the “H. glycines J2 populations in soil” value is on record as “eliminated”. For the same molecule, the “M. arenaria juveniles [J2] in preplant samples” value with Meloidogyne arenaria (all rates (100, 200, 300, 400 mg/kg of soil)) is “eliminated”. Also, the “Galls in roots of plants from treated soil (M. arenaria)” value in the series with Meloidogyne arenaria (soybean after eight weeks) is reported as “no galls”. Besides, in series [4], the “P. christiei populations in preplant samples” value was “eliminated”. Besides, in the series with Pratylenchus brachyurus, the “P. brachyurus populations in preplant samples” value is listed as “eliminated”. In the series with 'Brim' soybean (400 mg), the Phytotoxicity to soybean entry was “phytotoxic”. Also, in the series with 'Brim' soybean (rates ≦300 mg), the “General appearance of roots [root condition index]” value is “improved”. Moreover, the “Nematodes in roots and soils at end of experiment” value in series [5] was “no nematodes”.

The values above are taken from patent US6465527B1, “Iodinated hydrocarbon pesticide” (priority 1999, dated 2002).
